Laboratory results as given in patent US9340577B2, “HLA binding motifs and peptides and their uses” (priority 1992, dated 2016).
No end group written: not given here.

How the values were obtained:
Experiment in all cases: biochemical
Assay type in all cases: binding
HLA-A*0201 (HLA-A2.1) = HLA-A*0201 (HLA-A2.1) (Homo sapiens, UniProt P04439, D140Y/D185E/D98H/E176V/E277Q/G131W/G231S/I119V/I121R/I166T/I218V/L300P/L318F/N151K/N90K/P208A/P217A/Q86G/Q94H/R138H/R169H/T345S)
A*0202 = A*0202 (Homo sapiens, UniProt P04439, D140Y/D185E/D98H/E176V/E277Q/G131W/G231S/I119L/I121R/I166T/I218V/L180W/L300P/L318F/N151K/N90K/P208A/P217A/Q67R/Q86G/Q94H/R138H/R169H/T345S)
A*0203 = A*0203 (Homo sapiens, UniProt P04439, A173T/D140Y/D185E/D98H/E277Q/G131W/G231S/I119V/I121R/I166T/I218V/L180W/L300P/L318F/N151K/N90K/P208A/P217A/Q86G/Q94H/R138H/R169H/T345S)
A*0206 = A*0206 (Homo sapiens, UniProt P04439, D140Y/D185E/D98H/E176V/E277Q/F33Y/G131W/G231S/I119V/I121R/I166T/I218V/L300P/L318F/N151K/N90K/P208A/P217A/Q86G/Q94H/R138H/R169H/T345S)
A*6802 = A*6802 (Homo sapiens, UniProt P04439, A269V/D140Y/D185E/E176V/E277Q/E87N/F33Y/G231S/I121R/I166T/I218V/L180W/L300P/L318F/N151K/P208A/P217A/Q86R/R138H/R169H/S129P/T345S/V36M)

Row | Compound | IC50 (HLA-A*0201 (HLA-A2.1)) | IC50 (A*0202) | IC50 (A*0203) | IC50 (A*0206) | IC50 (A*6802)
1 | GLFQQSTQEL [Peptide 9013.0176] | 1360 nM | 6.2 nM | 48 nM | > 20000 nM | > 20000 nM
2 | FQKYKTLFV [Peptide 1578.54] | 1140 nM | 821 nM | 30 nM | 419 nM | > 20000 nM
3 | TLQATPGPA [Peptide 9013.0028] | 19400 nM | 1980 nM | 29 nM | > 20000 nM | > 20000 nM
4 | TLELFISNI [Peptide 9013.0082] | 2460 nM | 170 nM | 1700 nM | 3850 nM | 949 nM
5 | FLGALKSFV [Peptide 1593.56] | 93 nM | 1.1 nM | 1.1 nM | 79 nM | 822 nM
6 | HLQVLFIAKI [Peptide 9013.0244] | 5930 nM | 789 nM | 29 nM | 121 nM | > 20000 nM
7 | QLSNGNRTLTL [Peptide 9013.0292] | > 20000 nM | 80 nM | 683 nM | > 20000 nM | > 20000 nM
8 | IIYPNASLLV [Peptide 9013.0144] | 466 nM | 9.9 nM | 4.7 nM | 70 nM | 830 nM
9 | GLQQATPGPA [Peptide 9013.0143] | 4870 nM | 220 nM | 3.9 nM | > 20000 nM | > 20000 nM
10 | RMLQQLLFV [Peptide 1525.16] | 21 nM | 21 nM | 6.8 nM | 14 nM | > 20000 nM
11 | FLQGSVICFV [Peptide 1578.05] | 41 nM | 3.5 nM | 9.1 nM | 73 nM | 380 nM
12 | ALYWYRTGL [Peptide 1578.30] | 5070 nM | 8.2 nM | 23 nM | 11500 nM | > 20000 nM
13 | CLAHNSDTGL [Peptide 9013.0191] | 13500 nM | 13 nM | 39 nM | > 20000 nM | > 20000 nM
14 | FLQGAIISFV [Peptide 1578.27] | 45 nM | 0.65 nM | 6.6 nM | 69 nM | 86 nM
15 | GLNRTTVTV [Peptide 9013.0066] | 109 nM | 10 nM | 3.8 nM | 4730 nM | > 20000 nM
16 | TVNNSGSYV [Peptide 9013.0064] | 16600 nM | 310 nM | 39 nM | > 20000 nM | 44 nM
17 | YLYYRPGVNL [Peptide 9013.0209] | 54 nM | 2.2 nM | 2.8 nM | 940 nM | 953 nM
18 | ILYPNASLLI [Peptide 9013.0145] | 88 nM | 1.3 nM | 2.8 nM | 252 nM | 3120 nM
19 | ALYWYRTGI [Peptide 86.0181] | 555 nM | 24 nM | 64 nM | 4640 nM | 4850 nM
20 | CC(C)C[C@H](NC(=O)[C@@H](N)CCCNC(=N)N)C(=O)N1CCC[C@H]1C(=O)N[C@@H](CCC(=O)O)C(=O)N[C@@H](C)C(=O)N[C@@H](C)C(=O)N1CCC[C@H]1C(=O)N1CCC[C@H]1C(=O)N[C@H](C(=O)N[C@H](C(=O)O)C(C)C)C(C)C [Peptide 1323.17] | 152 nM | 32 nM | 18 nM | 240 nM | > 20000 nM
21 | YLWWVNNQSV [Peptide 9013.0197] | 8.9 nM | 1.2 nM | 4.2 nM | 65 nM | 17 nM
22 | YTNWGEIYI [Peptide 1578.49] | 293 nM | 10 nM | 82 nM | 700 nM | 24 nM
23 | EVQNTTYLWWV [Peptide 9013.0326] | > 20000 nM | > 20000 nM | 19600 nM | > 20000 nM | 34 nM
24 | RTLTLLSVV [Peptide 9013.0075] | 505 nM | 6020 nM | 300 nM | 88 nM | > 20000 nM

Row | Compound | IC50 (HLA-A*0201 (HLA-A2.1)) | IC50 (A*0202) | IC50 (A*0203) | IC50 (A*0206) | IC50 (A*6802)
25 | GLFRVYPEL [Peptide 9013.0039] | 43 nM | 13 nM | 229 nM | 1420 nM | > 20000 nM
26 | ALFNVQEGV [Peptide 1578.41] | 64 nM | 2 nM | 5.2 nM | 45 nM | 914 nM
27 | IQNDTGFYTV [Peptide 9013.0149] | 600 nM | 20 nM | 31 nM | 63 nM | 8840 nM
28 | QQSTQELFV [Peptide 9013.0056] | 1590 nM | 163 nM | 409 nM | 593 nM | > 20000 nM
29 | FLVAFKQFL [Peptide 1578.42] | 55 nM | 0.43 nM | 4.7 nM | 81 nM | 1400 nM
30 | VIKSDLVNEEV [Peptide 9013.0278] | > 20000 nM | 57 nM | 1730 nM | > 20000 nM | > 20000 nM
31 | TAKLTIESV [Peptide 9013.0009] | > 20000 nM | 480 nM | 216 nM | 10700 nM | 243 nM
32 | IIYPNASLV [Peptide 9013.0029] | 230 nM | 24 nM | 4 nM | 152 nM | 409 nM
33 | CQAHNSDTGV [Peptide 9013.0190] | > 20000 nM | 339 nM | 466 nM | 1560 nM | > 20000 nM
34 | TVTTITVYV [Peptide 9013.0068] | 102 nM | 12 nM | 58 nM | 95 nM | 3 nM
35 | FLQSTQELFI [Peptide 9013.0179] | 95 nM | 3.7 nM | 59 nM | 1110 nM | > 20000 nM
36 | RTLQQLLFI [Peptide 1525.11] | 152 nM | > 20000 nM | 1660 nM | 89 nM | > 20000 nM
37 | RLQLSNGNRTL [Peptide 9013.0286] | > 20000 nM | 443 nM | 2840 nM | > 20000 nM | > 20000 nM
38 | LQLSNDNRTLV [Peptide 9013.0307] | 12800 nM | 1390 nM | 5200 nM | 99 nM | > 20000 nM
39 | MAFEYALLA [Peptide 1578.09] | 226 nM | 52 nM | 74 nM | 100 nM | 29 nM
40 | YLCGIQNSVSA [Peptide 9013.0338] | 208 nM | 21 nM | 180 nM | 513 nM | 9160 nM
41 | CC[C@H](C)[C@H](N)C(=O)N[C@@H](CCSC)C(=O)N[C@H](C(=O)NCC(=O)N[C@H](C(=O)N[C@@H](CC(C)C)C(=O)N[C@H](C(=O)NCC(=O)N[C@H](C(=O)N[C@@H](C)C(=O)N[C@H](C(=O)O)C(C)C)C(C)C)C(C)C)C(C)C)[C@@H](C)CC [Peptide 9013.0346] | 75 nM | 18 nM | 55 nM | 61 nM | 9000 nM
42 | FQYAQLADV [Peptide 1578.36] | 42 nM | 3.7 nM | 12 nM | 32 nM | 16900 nM
43 | VLEGKEVLLLV [Peptide 9013.0273] | 1840 nM | 32 nM | 272 nM | 4610 nM | > 20000 nM
44 | LQGSVICFV [Peptide 1578.06] | 23 nM | 33 nM | 21 nM | 52 nM | 3560 nM
45 | SLNRSDPVT [Peptide 9013.0099] | > 20000 nM | 121 nM | 2490 nM | > 20000 nM | > 20000 nM
46 | AVAFTCEPEV [Peptide 9013.0155] | 7860 nM | 233 nM | 54 nM | 199 nM | 13400 nM
47 | ALAEAMSQA [Peptide 1539.04] | 15 nM | 1.9 nM | 20 nM | 17 nM | 3020 nM
48 | IQNDTGFYV [Peptide 9013.0035] | 148 nM | 16 nM | 37 nM | 32 nM | 4500 nM
